Experimental data taken from patent US20240002229A1, “DEVICE FOR ENHANCING REACTION POTENTIAL OF OXIDIZING AGENTS” (Bis Science LLC, priority 2022, published 2024).

Tests used:
Type in all cases: cell-based
[1] = test system: Staphylococcus epidermidis ATCC 12228; experiment: Residual effect test on inoculated agar carrier (Table 4)
Protocol: The test substance or PEOA was applied to target which consisted of a microbe inoculated agar plate. The application of the PEOA can be by means such as a dropper, fog, mist or spray or any other acceptable means. […] PEOA was applied to inoculated plates at intervals of 1 minute, 5 minutes, 10 minutes, 30 minutes, 1 hour, 12 hours, 24 hours, 2, days, 5 days, and 7 days after radiation exposure. In one test, after 7 days, the PEOA was again subjected to photon emissions from 0.01 nm to 845 nm for the test labeled reactivation. An additional photon and or phonon exposure similar to the initial enhancement by photon and or phonons of 0.01 nm through 845 nm was the reactivation dose of photons.

microbial counts = experiment: Independent research lab testing, microbial reduction, 5 minute contact time; details: 1 part per million, 5 minute contact time with the ambient air
Protocol: A small micron PEOA antimicrobial dry fog is administered into the ambient air through an existing HVAC system and device at a concentration of less than 1 part per million.

E. coli = experiment: Microbial reduction by stored photon enhanced solution versus un-exposed hydrogen peroxide; details: samples at 4 weeks post exposure to photons; control not exposed

Structure (SMILES): OO [Control, hydrogen peroxide]
- CFU/carrier ([1]; Control, time after radiation exposure N/A): 6.04E+05 CFU/carrier
- CFU/carrier ([1]; applied to carrier 2 Days after radiation exposure): 3.00E+05 CFU/carrier
- CFU/carrier ([1]; applied to carrier 5 Days after radiation exposure): 4.50E+04 CFU/carrier
- CFU/carrier ([1]; applied to carrier 7 Days after radiation exposure): 9.80E+04 CFU/carrier
- CFU/carrier ([1]; applied to carrier 12 Hours after radiation exposure): 9.20E+04 CFU/carrier
- CFU/carrier ([1]; applied to carrier 24 Hours after radiation exposure): 1.33E+05 CFU/carrier

Structure (SMILES): OO [standard hydrogen peroxide, hydrogen peroxide]
- microbial reduction (microbial counts): little or no microbial reduction

Structure (SMILES): OO [hydrogen peroxide]
- microbial (E. coli) reduction (E. coli): 23.08%
